{"source": "patent US11260139B2", "about": "“Rapid surface disinfection method and apparatus” (priority 2011, dated 2022)", "system": "S. aureus bacteria", "test": "survival of S. aureus bacteria on agar culture plates following 3 sec. exposure to atomized liquid", "type": "cell-based", "conditions": "for antimicrobial effectiveness of the liquid as solvent of the nitric oxide solution: liquid atomized with NO, rank: ethanol>isopropanol>water", "method": "The survival fraction is the fraction of at least 100 colonies that survive the treatment. Control plates were exposed to air for 3 sec. Ethanol plates were exposed to ethanol atomized with nitrogen. 25% NO plates were exposed to ethanol atomized with 25% NO and 75% nitrogen.\nExperiments were conducted on agar culture plates to compare nitric oxide concentrations ranging from 0% in nitrogen (the ‘ethanol’ experiment) to 100% NO.", "data": [{"smiles": "[N]=O", "note": "[NO, nitric oxide]", "values": [{"measurement": "effect of NO on the antimicrobial activity of the atomized liquid", "setting": "NO concentrations 0% to 100% in nitrogen compared", "value": "dramatically increases the antimicrobial activity"}]}, {"smiles": "CCO", "note": "[ethanol]", "values": [{"measurement": "antimicrobial effectiveness of the liquid as solvent of the nitric oxide solution", "value": "effective"}]}, {"smiles": "CC(C)O", "note": "[isopropanol]", "values": [{"measurement": "antimicrobial effectiveness of the liquid as solvent of the nitric oxide solution", "value": "effective"}]}, {"smiles": "O", "note": "[water]", "values": [{"measurement": "antimicrobial effectiveness of the liquid as solvent of the nitric oxide solution", "value": "effective"}]}]}
